Results reported in US20040127504A1, “Benzimidazoles that are useful in treating sexual dysfunction” (priority 2002, published 2004).

System: Male Fitch ferrets
Design: species or system ferret
Conditions: in vivo, sc
Protocol: Male Fitch ferrets (body weights 1.0-1.5 kg) were obtained from Marshall Farms. Ferrets were fasted overnight before experimentation. Apomorphine or a compound of the present invention was administrated subcutaneously; animals were placed individually in observation cages and the drug-induced emesis and signs of nausea were determined (by direct observation) for a period of 90 minutes following drug injection. Nausea was characterized by behaviors such as licking, gagging, backing, head burying, and intense abdominal grooming. Emesis was usually preceded by these behaviors and was characterized by rhythmic abdominal contractions which were associated with vomiting or retching movement.
Sterile saline was used as vehicle. Six animals were used per dose.

| Structure (SMILES) | induction of emesis in ferrets |
| --- | --- |
| c1ccc(N2CCN(Cc3nc4ccccc4[nH]3)CC2)nc1 [2-[(4-pyridin-2-ylpiperazin-1-yl)methyl]-1H-benzimidazole] | did not induce emesis |

System: not given
Conditions: not given

| melting point [°C] | Structure (SMILES) |
| --- | --- |
| 144 to 145 | Oc1ccc(N2CCN(Cc3nc4ccccc4[nH]3)CC2)nc1 [6-[4-(1H-benzimidazol-2-ylmethyl)piperazin-1-yl]pyridin-3-ol] |
| 198 to 200 | c1cnc(N2CCN(Cc3nc4ccccc4[nH]3)CC2)nc1 [Example 2, 2-[(4-pyrimidin-2-ylpiperazin-1-yl)methyl]-1H-benzimidazole] |
| 208 to 210 | N#Cc1cccnc1N1CCN(Cc2nc3ccccc3[nH]2)CC1 [Example 4, 2-[4-(1H-benzimidazol-2-ylmethyl)piperazin-1-yl]nicotinonitrile] |
| 203 to 205 | c1ccc2[nH]c(CN3CCN(c4nccs4)CC3)nc2c1 [Example 7, 2-{[4-(1,3-thiazol-2-yl)piperazin-1-yl]methyl}-1H-benzimidazole] |
| 120 to 121 | O=C(N1CCCC1)n1c(CN2CCN(c3ccccn3)CC2)nc2ccccc21 [Example 9, 2-[(4-pyridin-2-ylpiperazin-1-yl)methyl]-1-(pyrrolidin-1-ylcarbonyl)-1H-benzimidazole] |
| 174 to 176 | CN(C)C(=O)n1c(CN2CCN(c3ccccn3)CC2)nc2ccccc21 [Example 10, N,N-dimethyl-2-[(4-pyridin-2-ylpiperazin-1-yl)methyl]-1H-benzimidazole-1-carboxamide] |
| 236 to 237 | N#Cc1ccccc1N1CCN(Cc2nc3ccccc3[nH]2)CC1 [Example 12, 2-[4-(1H-benzimidazol-2-ylmethyl)piperazin-1-yl]benzonitrile] |
| 245 to 246 | Clc1ccccc1N1CCN(Cc2nc3ccccc3[nH]2)CC1 [Example 13, 2-{[4-(2-chlorophenyl)piperazin-1-yl]methyl}-1H-benzimidazole] |
| 262 to 264 | Fc1ccccc1N1CCN(Cc2nc3ccccc3[nH]2)CC1 [Example 14, 2-{[4-(2-fluorophenyl)piperazin-1-yl]methyl}-1H-benzimidazole] |
| 206 to 209 | Oc1ccc(N2CCN(Cc3nc4ccccc4[nH]3)CC2)cc1 [Example 17, 4-[4-(1H-benzimidazol-2-ylmethyl)piperazin-1-yl]phenol] |
| 214 to 216 | CSc1ccccc1N1CCN(Cc2nc3ccccc3[nH]2)CC1 [Example 18, 2-({4-[2-(methylthio)phenyl]piperazin-1-yl}methyl)-1H-benzimidazole] |
| 208 to 216 | Oc1ccccc1N1CCN(Cc2nc3ccccc3[nH]2)CC1 [Example 20, 2-[4-(1H-benzimidazol-2-ylmethyl)piperazin-1-yl]phenol] |
| 207 to 209 | CC1CN(c2ccccn2)CCN1Cc1nc2ccccc2[nH]1 (centres unmarked) [Example 24, 2-[(2-methyl-4-pyridin-2-ylpiperazin-1-yl)methyl]-1H-benzimidazole] |
| 149 to 151 | C[C@H]1CN(c2ccccn2)CCN1Cc1nc2ccccc2[nH]1 [Example 25, 2-{[(2S)-2-methyl-4-pyridin-2-ylpiperazin-1-yl]methyl}-1H-benzimidazole] |
| 151 to 153 | C[C@@H]1CN(c2ccccn2)CCN1Cc1nc2ccccc2[nH]1 [Example 26, 2-{[(2R)-2-methyl-4-pyridin-2-ylpiperazin-1-yl]methyl}-1H-benzimidazole] |
| 210 to 212 | Fc1cccnc1N1CCN(Cc2nc3ccccc3[nH]2)CC1 [Example 28, 2-{[4-(3-fluoropyridin-2-yl)piperazin-1-yl]methyl}-1H-benzimidazole] |
